Laboratory results published in publication PMC8467962, “Design and Synthesis of Water-Soluble and Potent MMP-13 Inhibitors with Activity in Human Osteosarcoma Cells” (International Journal of Molecular Sciences, 2021).
In brackets after ≈: the same amount, converted by molar mass.

Key:
[1] = biological target: T1, MMP-2 (Homo sapiens, UniProt P08253); experiment: MMP inhibition assay (MMP Inhibitor Profiling Kit, thiopeptide substrate), MMP-2; format: biochemical; settings: catalytic domain, 37 °C, pH 7.5
T1 construct: the catalytic domains of the corresponding MMP were incubated in triplicate; purchased Enzo Life Science International, Inc
T1 sequence (P08253 110-446 limits assumed): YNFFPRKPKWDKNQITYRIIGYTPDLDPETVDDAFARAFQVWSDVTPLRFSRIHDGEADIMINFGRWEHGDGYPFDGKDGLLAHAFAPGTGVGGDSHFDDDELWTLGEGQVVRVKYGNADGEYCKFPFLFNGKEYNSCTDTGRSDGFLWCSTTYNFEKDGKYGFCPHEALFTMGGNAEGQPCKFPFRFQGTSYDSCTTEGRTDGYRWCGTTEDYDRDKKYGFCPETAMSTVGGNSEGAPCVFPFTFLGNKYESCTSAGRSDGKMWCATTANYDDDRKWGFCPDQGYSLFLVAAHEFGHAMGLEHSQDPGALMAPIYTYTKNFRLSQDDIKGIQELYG
Description: (§1) MMP activity measurements were performed using an MMP Inhibitor Profiling Kit purchased from Enzo Life Science International, Inc. (Farmingdale, NY, USA), and following the manufacturer’s protocol with slight modifications. Proteolytic activity was measured using a thiopeptide substrate (Ac-PLG-[2-mercapto-4-methylpentanoyl]-LG-OC2H5) where the MMP cleavage site peptide bond has been replaced by a thioester bond. Hydrolysis of this bond by MMPs produces a sulfhydryl group that reacts with DTNB to form 2-nitro-5-thiobenzoic acid, which was detected by its absorbance at 414 nm (microplate photometer 90 Thermo Scientific Multiscan FC).
Enzyme reactions were carried out at 37 °C in a 100 μL final volume of solutions, where the catalytic domains of the corresponding MMP were incubated in triplicate with at least seven concentrations of inhibitors. The assay buffer contained the following components: 50 mM HEPES, 10 mM CaCl2 95, 0.05% Brij-35, and 1 mM DTNB at pH 7.5. After addition of the substrate, the increase of absorbance was recorded in 1 min time intervals for 30 min. Data were plotted as OD versus time for each sample to obtain the reaction velocity (V) in OD per min. The percentage of residual activity for each compound was calculated using the following formula: % of remaining activity = (V in the presence of inhibitor/Vcontrol) × 100. An inhibitor, NNGH, was included as a prototypic control inhibitor. IC50 calculations in MMP-13 and MMP-2 for active compounds are shown in Supplementary Materials (Figure S9)
The concentration of the compound that provided 50% inhibition of enzymatic activity (IC50) was determined by using semi-logarithmic dose–response plots (Graph Pad Prism 5.0 for Windows, Graph Pad Software Inc., San Diego, CA, USA, 2007).

[2] = Thermodynamic solubility (shake flask method); format: physicochemical; settings: phosphate buffer, aqueous buffer, thermodynamic from solid; PBS pH 7.4, shake flask, room temperature; read-out: Experimental Water Solubility LogS (converted)
Description: The samples were sonicated for 10 min and shaken overnight at 800 rpm (FB15013 TopMix, Fischer Scientific, Waltham, MA, USA) at room temperature. A first phase separation of supernatant and undissolved solid was performed by centrifugation at 5000 rpm for 20 min (Biofuge primo R). The supernatant was then transferred into Eppendorf tubes for a second centrifugation. An adequate dilution was made using the particle-free supernatant and the concentration quantified by LC-HRMS using a 4-point calibration curve (Agilent 1260 Infinity II).
PART A. Calibration curves of compounds for solubility
9e, 10a-e), 4-points calibration curves were made for each compound. Calibrations curves were obtained using four different concentrations of the corresponding compound (0.1 mg/mL, 0.01 mg/mL, 0.001 mg/mL and 0.0001 mg/mL). All samples were prepared in DMSO and measured in a LC-HRMS (Agilent 1260 Infinity II).
Figure S1. Calibration curves of all active compounds (solubility studies) (1, 2, 9a, 9e, 10a-e) […]

[3] = biological target: T2, MMP-13 (Homo sapiens, UniProt P45452); experiment: MMP inhibition assay (MMP Inhibitor Profiling Kit, thiopeptide substrate), MMP-13; format: biochemical; settings: catalytic domain, 37 °C, pH 7.5
T2 construct: the catalytic domains of the corresponding MMP were incubated in triplicate; purchased Enzo Life Science International, Inc
Description: as §1, with “Proteolytic activity was measured using a thiopeptide substrate (Ac-PLG-[2-mercapto-4-methylpentanoyl]-LG-OC2H5) where the MMP cleavage site peptide bond has been replaced by a thioester bond.” left out
The assay buffer contained the following components: 50 mM HEPES, 10 mM CaCl2 95, 0.05% Brij-35, and 1 mM DTNB at pH 7.5. After addition of the substrate, the increase of absorbance was recorded in 1 min time intervals for 30 min. Data were plotted as OD versus time for each sample to obtain the reaction velocity (V) in OD per min. The percentage of residual activity for each compound was calculated using the following formula: % of remaining activity = (V in the presence of inhibitor/Vcontrol) × 100. An inhibitor, NNGH, was included as a prototypic control inhibitor.

[4] = biological target: T3, recombinantly expressed catalytic domain of MMP-13 (Homo sapiens, UniProt P45452); experiment: Enzymatic activity of recombinantly expressed MMP-13 catalytic domain, dose response of BiPS; format: biochemical; settings: recombinantly expressed catalytic domain of MMP-13, after refolding
T3 construct: containing the catalytic site (amino acid residues −104 to 274); TEV cleavage site (C); 6xHis (C); made in house; host or cells: Escherichia coli BL21-DE3 pLys S
From the text: To this end, a recombinantly expressed catalytic domain of MMP-13 was purified under denaturing conditions (Figure S6); the process lead to a very pure sample preparation.
(§2) Figure S5. PyMOL stick and cartoon representation of the bidentate interaction established by the hydroxamate and the catalytic Zinc ion in both MMP-13 (left) and MMP-2 (right). Hydrogen bonds are shown in dashed lines, the catalytic zinc ion is shown as grey sphere. For the sake of clarity, no hydrogens are shown.
(§3) Figure S6. SDS-PAGE analysis of the recombinantly expressed catalytic dom ain of MMP-13 purified by metal affinity chromatography. M corresponds to the molecular weight markers ( k D a ) . […]
(§4) Log(BiPS [M]) Log(BiPS [M])
(§5) Figure S7. Dose response curve used to determine IC50 of BiPS for A) recombinantly expressed catalytic domain of MMP-13, and B) commercially available MMP-13 active protein. […]

[5] = biological target: MMP-13 catalytic domain (Homo sapiens, UniProt P45452); experiment: WaterLOGSY NMR experiment; settings: 5 μM protein, 0.15 mM ligand, 25 °C
[6] = biological target: commercially available MMP-13 active protein (Homo sapiens, UniProt P45452); experiment: Enzymatic activity of commercial MMP-13, dose response of BiPS; format: biochemical
From the text: as §2, §3, §4, §5

IC50 [1] [nM]	melting point	solubility [2] [µM]	IC50 [3] [nM]	IC50 [4] [nM]	Interaction with the MMP-13 catalytic domain (WaterLOGSY) [5]	IC50 [6] [nM]	Structure (SMILES)
17 ± 4	195 to 197 °C	0.141 (≈ 0.124 µg/mL)	61 ± 18				O=C(NO)[C@@H](Cc1ccccc1)NS(=O)(=O)c1ccc(-n2cc(CCN3C(=O)c4c(Br)c(Br)c(Br)c(Br)c4C3=O)nn2)cc1 [Compound 10c, (R)-N-hydroxy-3-phenyl-2-((4-(4-(2-(4,5,6,7-tetrabromo-1,3-dioxoisoindolin-2-yl)ethyl)-1H-1,2,3-triazol-1-yl)phenyl)sulfonamido)propenamide]
3.1 ± 0.9	177 °C (dec.)	2.69 (≈ 1.51 µg/mL)					O=C(NO)[C@@H](Cc1ccccc1)NS(=O)(=O)c1ccc(-n2cc(CCN3C(=O)c4ccccc4C3=O)nn2)cc1 [Compound 10a, (R)-2-((4-(4-(2-(1,3-dioxoisoindolin-2-yl)ethyl)-1H-1,2,3-triazol-1-yl)phenyl)sulfonamido)-N-hydroxy-3-phenylpropanamide]
2.9 ± 1.1	143 to 145 °C	8.32 (≈ 4.78 µg/mL)					Cc1ccc2c(c1)C(=O)N(CCc1cn(-c3ccc(S(=O)(=O)N[C@H](Cc4ccccc4)C(=O)NO)cc3)nn1)C2=O [Compound 10e, (R)-N-hydroxy-2-((4-(4-(2-(5-methyl-1,3-dioxoisoindolin-2-yl)ethyl)-1H-1,2,3-triazol-1-yl)phenyl)sulfonamido)-3-phenylpropanamide]
				1.44	positive signals	2.06	O=C(NO)[C@@H](Cc1ccccc1)NS(=O)(=O)c1ccc(-c2ccccc2)cc1 [BiPS, (2R)-[(4-biphenylylsulfonyl)amino]-N-hydroxy-3-phenylpropionamide]
10.3 ± 2.8		33.9 (≈ 16.9 µg/mL)					O=C(NO)C1(S(=O)(=O)c2ccc(-n3cc(CCn4nc5ccccc5n4)nn3)cc2)CCOCC1 [Compound 9e, 4-((4-(4-(2-(2H-benzo[d][1–3]triazol-2-yl)ethyl)-1H-1,2,3-triazol-1-yl)phenyl)sulfonyl)-N-hydroxytetrahydro-2H-pyran-4-carboxamide]
> 100	246 °C (dec.)		> 100				O=C(O)[C@@H](Cc1ccccc1)NS(=O)(=O)c1ccc(-n2cc(CCn3nc4ccccc4n3)nn2)cc1 [Compound 9b, (R)-2-(4-(4-(2-(2H-benzo[d][1–3]triazol-2-yl)ethyl)-1H-1,2,3-triazol-1-yl)phenylsulfonamido)-3-phenylpropanoic acid]
